ChEMBL document CHEMBL1151975, “Isolation, structure, and antibacterial activities of lucensimycins D-G, discovered from Streptomyces lucensis MA7349 using an antisense strategy” (2009)
≈ marks a conversion by molar mass, not a printed value. Calls of active or inactive are those of the source. The rule behind the calls is not given here.

How the values were obtained:
[1] = tested on: Streptomyces noursei; assay: Antimicrobial activity against Streptomyces albulus MJ202-72F3; format: functional
[2] = tested on: Staphylococcus aureus; assay: Antimicrobial activity against Staphylococcus aureus bearing antisense rpsD gene by two-plate assay; format: functional
[3] = tested on: Staphylococcus aureus; assay: Antimicrobial activity against Staphylococcus aureus Smith at 250 ug/ml; format: functional, organism-based
[4] = tested on: Staphylococcus aureus; assay: Antimicrobial activity against Staphylococcus aureus EP167 at 0.5 mg/ml by two-plate assay; format: functional, organism-based
[5] = tested on: Enterococcus faecalis; assay: Antimicrobial activity against Enterococcus faecalis at 250 ug/ml; format: functional, organism-based
[6] = tested on: Candida albicans; assay: Antimicrobial activity against Candida albicans at 250 ug/ml; format: functional, organism-based
[7] = tested on: Streptococcus pneumoniae; assay: Antimicrobial activity against Streptococcus pneumoniae CL 2883; format: functional
[8] = tested on: Bacillus subtilis; assay: Antimicrobial activity against Bacillus subtilis at 250 ug/ml; format: functional, organism-based
[9] = tested on: Escherichia coli; assay: Antimicrobial activity against Escherichia coli at 250 ug/ml; format: functional, organism-based
[10] = tested on: Haemophilus influenzae; assay: Antimicrobial activity against Haemophilus influenzae at 250 ug/ml; format: functional, organism-based
[11] = tested on: Staphylococcus aureus; assay: Antimicrobial activity against Staphylococcus aureus Smith; format: functional

SMILES | MIC [1] [µg/mL] | MIC [7] [µg/mL] | MIC [11] [µg/mL] | inhibition zone (IZ) [2] [mm] | Activity [3] | Activity [4] | Activity [5] | Activity [6] | Activity [7] | Activity [8] | Activity [9] | Activity [10]
CCC(O)C(C)/C=C/C=C/C(O)CC1C=CC2CC(C)CC(C)C2C1(C)C(=O)C1=C(O)CNC1=O (stereo not drawn) [DELAMINOMYCIN C] | 25 (≈ 51.5 µM) | – | – | – | – | – | – | – | – | – | – | –
C=C1OC(=O)[C@@]2(C1=O)C(=O)[C@@]1(C)[C@@H](C=C[C@H]3[C@H](O)[C@@H](C)[C@H](OC(C)=O)C[C@@H]31)C[C@H]2/C=C/C=C/C=C/C(=O)O [LUCENSIMYCIN A] | – | – | – | 12 | inactive | Active | inactive | inactive | inactive | inactive | inactive | inactive
CC(=O)O[C@@H]1C[C@H]2[C@@H](C=C[C@H]3C[C@@H](/C=C/C=C/C=C/C(=O)O)[C@@]4(C(=O)O[C@@H](CO)C4=O)C(=O)[C@@]32C)[C@H](O)[C@H]1C | – | – | – | – | inactive | – | inactive | inactive | inactive | inactive | inactive | inactive
CCC(O)C(C)/C=C/C=C/C(O)CC1C=CC2CC(C)CC(C)C2C1(C)C(=O)C1=C(O)C(OC)NC1=O (stereo not drawn) [DELAMINOMYCIN B] | 25 (≈ 48.5 µM) | – | – | – | – | – | – | – | – | – | – | –
CC(=O)N[C@H](CSC[C@H]1OC(=O)[C@@]2(C1=O)C(=O)[C@@]1(C)[C@@H](C=C[C@H]3[C@H](O)[C@@H](C)[C@H](OC(C)=O)C[C@@H]31)C[C@H]2/C=C/C=C/C=C/C(=O)O)C(=O)N[C@H]1[C@@H](O[C@@H]2[C@@H](O)[C@H](O)[C@@H](O)[C@H](O)[C@@H]2O)O[C@@H](CO)[C@@H](O)[C@@H]1O | – | – | – | – | inactive | Active | inactive | inactive | inactive | inactive | inactive | inactive
CC(=O)N[C@H](CSC[C@@H]1OC(=O)[C@@]2(C1=O)C(=O)[C@@]1(C)[C@@H](C=C[C@H]3[C@H](O)[C@@H](C)[C@H](OC(C)=O)C[C@@H]31)C[C@H]2/C=C/C=C/C=C/C(=O)O)C(=O)N[C@H]1[C@@H](O[C@@H]2[C@@H](O)[C@H](O)[C@@H](O)[C@H](O)[C@@H]2O)O[C@@H](CO)[C@@H](O)[C@@H]1O | – | – | – | – | inactive | Active | inactive | inactive | inactive | inactive | inactive | inactive
C=C(OC(=O)[C@@H]1C(=O)[C@@]2(C)[C@@H](C=C[C@H]3[C@H](O)[C@@H](C)[C@H](OC(C)=O)C[C@@H]32)C[C@H]1/C=C/C=C/C=C/C(=O)O)C(=O)O | – | – | – | – | inactive | – | inactive | inactive | inactive | inactive | inactive | inactive

Second part, led by results:

MIC [1] [µg/mL] | MIC [7] [µg/mL] | MIC [11] [µg/mL] | SMILES | inhibition zone (IZ) [2] [mm] | Activity [3] | Activity [4] | Activity [5] | Activity [6] | Activity [7] | Activity [8] | Activity [9] | Activity [10]
25 (≈ 49.8 µM) | – | – | CCC(O)C(C)/C=C/C=C/C(O)CC1C=CC2CC(C)CC(C)C2C1(C)C(=O)C1=C(O)C(O)NC1=O (stereo not drawn) [DELAMINOMYCIN A] | – | – | – | – | – | – | – | – | –
– | 250 (≈ 363 µM) | – | CC(=O)N[C@H](CSC[C@@H]1OC(=O)[C@@]2(C1=O)C(=O)[C@@]1(C)[C@@H](C=C[C@H]3[C@H](O)[C@@H](C)[C@H](OC(C)=O)C[C@@H]31)C[C@H]2/C=C/C=C/C=C/C(=O)O)C(=O)O [LUCENSIMYCIN D] | 12 | inactive | – | – | – | – | – | – | –
– | 8 (≈ 11.6 µM) | 32 (≈ 46.5 µM) | CC(=O)N[C@H](CSC[C@H]1OC(=O)[C@@]2(C1=O)C(=O)[C@@]1(C)[C@@H](C=C[C@H]3[C@H](O)[C@@H](C)[C@H](OC(C)=O)C[C@@H]31)C[C@H]2/C=C/C=C/C=C/C(=O)O)C(=O)O [LUCENSIMYCIN E] | 12 | – | – | – | – | – | – | – | –
